Entries after “also recorded” stand apart in the source; their conditions may differ. Like-named read-outs stand apart in the source and are kept apart here.
How the values were obtained:
stage Vb retinoblastoma = type: in vivo, human
RB355 cells = assay: Cytotoxicity dose response in 384-well plates (Alamar Blue), RB355; type: cell-based, human; settings: for activity toward RB355 cells below 100 μM: upper limit 100 μM
Method: (§1) Dose response studies were performed in 384-well microtiter plates (#3712, Corning Inc., Corning, N.Y.) according to the following protocol: cells were added in 45 μL medium to the screening plates using Flexdrop. After 72 h incubation was added 5 μL Alamar Blue using Flexdrop. The cells were then incubated for another 24 h, and the fluorescence intensity was read on LEADseeker™ Multimodality Imaging System as previously described. To calculate the IC50 for each compound toward each cell line, the dose response was assessed in duplicate and using 12 point doubling dilutions with 100 μM compound concentration as the upper limit. The dose response curve for each set of data was fitted separately, and the two IC50 values obtained were averaged.
as §1, with “averaged. […] IC50 of 0.1 corresponds to <0.1 μM and IC50 of 100 corresponds to >100 μM.” for “averaged.”

Y79 cells [1] = assay: Cytotoxicity dose response in 384-well plates (Alamar Blue), Y79; type: cell-based, human; settings: for activity toward Y79 cells below 100 μM: upper limit 100 μM; for IC50: read-out: IC50 toward Y79 cells
Method: as §1
as §1, with “averaged. […] IC50 of 0.1 corresponds to <0.1 μM and IC50 of 100 corresponds to >100 μM.” for “averaged.”

Y79LUC cells = assay: Subcutaneous Y79LUC xenograft model of retinoblastoma; type: in vivo, mouse
Method: Subcutaneous xenograft experiments were performed at the Memorial Sloan-Kettering Cancer Center Antitumor Assessment Core Facility. Y79LUC cells (10E6) embedded in matrigel (BD Biosciences, San Jose, Calif.) were injected subcutaneously in the right flank of 8-weeks old ICR/SCID male mice. Treatment started when the tumors reached approximately 250 mm^3. The mice were randomized into three groups and two mice per group were treated with either 10% DMSO (v/v) (control group), 1.5 mg/kg ouabain or 15 mg/kg ouabain. Treatment was performed by continuous subcutaneous infusion using osmotic minipumps (#1007D, Alzet, Cupertino, Calif.). Tumor size was measured externally two times a week with a caliper. Body weight of each mouse was monitored as well as other signs of toxicity throughout the treatment period. Bioluminescent imaging of the tumors was performed once a week and prior to sacrifice as follows: mice were anesthetized by isofluorane inhalation and injected with D-luciferin at 50 mg/Kg (Xenogen) intraperitoneally; photonic emission was measured with the In Vivo Imaging System (IVIS 200, Xenogen) with a collection time of 5 seconds.
The therapeutic effect of the drug ouabain in a mouse xenograft model of retinoblastoma was also investigated. Three groups of two 8 weeks old ICR/SCID male mice bearing Y79 tumors implanted in the flank were treated with either vehicle only, 1.5 mg/kg ouabain or 15 mg/kg ouabain. Mice were continuously infused subcutaneously using an osmotic minipump delivery system. […] In comparison, tumors in the vehicle-treated control group continuously grew, necessitating to euthanize the animals at day 19.

Y79 cells [2] = type: cell-based, human
[3] = test system: Y79, RB355, WERI-Rb-1 and C918 ocular cancer cell lines; assay: Dose response (SAR) of 35 cardenolides in a panel of four ocular cancer cell lines; type: cell-based, human; settings: panel Y79, RB355, WERI-Rb-1, C918
Method: as §1
To explore the structure activity relationship (SAR) within this chemical class a collection of 35 cardenolides and derivatives was constituted. The dose response for each compound toward the ocular cancer cell lines Y79, RB355, WERI-Rb-1 and C918 was then assessed.

Y79 cells [4] = type: cell-based, human; remark: listed apart in the source
[5] = Homo sapiens, read-out: IC50 toward RB355 cells

N[C@@H](Cc1ccc(N(CCCl)CCCl)cc1)C(=O)O [melphalan]
response to intraarterial chemotherapy (stage Vb retinoblastoma; three cycles, administered elsewhere before presentation): incomplete response; also recorded: no regression on the main tumor or vitreous seeds

C[C@H]1O[C@@H](O[C@H]2[C@@H](O)C[C@H](O[C@H]3[C@@H](O)C[C@H](O[C@H]4CC[C@@]5(C)[C@H](CC[C@@H]6[C@@H]5C[C@@H](O)[C@]5(C)[C@@H](C7=CC(=O)OC7)CC[C@]65O)C4)O[C@@H]3C)O[C@@H]2C)C[C@H](O)[C@@H]1O [digoxin]
exam three weeks after intraarterial infusion (stage Vb retinoblastoma; in vivo): Exam remained stable | exam three weeks after second round of intraarterial infusion (stage Vb retinoblastoma; in vivo): decreased tumor size, fewer vitreous seeds, and resolution of the retinal detachment | exam three weeks after third intraarterial dose (stage Vb retinoblastoma; in vivo): measurable but modest improvement but residual active disease | reexamination after oral treatment (stage Vb retinoblastoma; in vivo, po): progression of disease

N.N.[Cl][Pt][Cl] [cisplatin]
maximum inhibition toward RB355 cells (RB355 cells; at 100 μM): 65% | activity toward Y79 cells below 100 μM (Y79 cells [1]): did not demonstrate any significant activity toward Y79 cells below 100 μM

COc1ccc(C2=N[C@@H](c3ccc(Cl)cc3)[C@@H](c3ccc(Cl)cc3)N2C(=O)N2CCNC(=O)C2)c(OC(C)C)c1 [nutlin-3]
IC50 (RB355 cells; read-out: IC50 toward RB355 cells): 11000 nM | IC50 (Y79 cells [1]): 78000 nM

C[C@@H]1O[C@@H](O[C@H]2C[C@@H](O)[C@]3(CO)[C@H]4[C@H](O)C[C@]5(C)[C@@H](C6=CC(=O)OC6)CC[C@]5(O)[C@@H]4CC[C@]3(O)C2)[C@H](O)[C@H](O)[C@H]1O [ouabain]
IC50 (RB355 cells; [5]): 400 nM | IC50 (Y79 cells [1]; Homo sapiens, Y79): 650 nM | tumor burden compared to the control group (Y79LUC cells; 1.5 mg/kg, continuous subcutaneous infusion): seemed to reduce the tumor burden | tumor burden by bioluminescent imaging (Y79LUC cells; 15 mg/kg, continuous subcutaneous infusion by minipump, after 14 days of treatment): complete tumor regression | average tumor size (Y79LUC cells; 15 mg/kg, day 14, caliper): 18 mm^3 | toxicity (average body weight, signs of toxicity) (Y79LUC cells; 15 mg/kg, throughout treatment period): did not induce any significant toxicity; also recorded: no signs of toxicity were observed | effect on Y79 cells in Yo-Pro pilot study (Y79 cells [2]): eradicated Y79 cells | activity across the panel of ocular cell lines [3]: potent activity across the entire panel of ocular cell lines tested | apoptosis (activated Caspase-3) compared to baseline (Y79 cells [4]): induced significant apoptosis; also recorded: induces apoptosis

CC[C@]1(O)C[C@H]2CN(CCc3c([nH]c4ccccc34)[C@@](C(=O)OC)(c3cc4c(cc3OC)N(C=O)[C@H]3[C@@](O)(C(=O)OC)[C@H](OC(C)=O)[C@]5(CC)C=CCN6CC[C@]43[C@@H]65)C2)C1 [vincristine]
IC50 (RB355 cells; Homo sapiens, read-out: IC50 toward RB355): 1.6 nM | plateau of inhibition toward Y79 cells (Y79 cells [1]; plateau prevented calculation of IC50): 50% | apoptosis (activated Caspase-3) compared to baseline (Y79 cells [4]): induced significant apoptosis

N.N.O=C([O-])C1(C(=O)[O-])CCC1.[Pt+2] [carboplatin]
activity toward RB355 cells below 100 μM (RB355 cells): neither caboplatin or calcitriol had any significant activity below 100 μM | activity toward Y79 cells below 100 μM (Y79 cells [1]): did not demonstrate any significant activity toward Y79 cells below 100 μM

C=C1/C(=C\C=C2/CCC[C@]3(C)[C@@H]([C@H](C)CCCC(C)(C)O)CC[C@@H]23)C[C@@H](O)C[C@@H]1O [calcitriol]
activity toward RB355 cells below 100 μM (RB355 cells): neither caboplatin or calcitriol had any significant activity below 100 μM | activity toward Y79 cells below 100 μM (Y79 cells [1]): did not demonstrate any significant activity toward Y79 cells below 100 μM

COc1cc([C@@H]2c3cc4c(cc3[C@@H](O[C@@H]3O[C@@H]5CO[C@@H](C)O[C@H]5[C@H](O)[C@H]3O)[C@H]3COC(=O)[C@H]23)OCO4)cc(OC)c1O [etoposide]
IC50 (RB355 cells; [5]): 970 nM | IC50 (Y79 cells [1]; Homo sapiens, Y79): 11000 nM | apoptosis (activated Caspase-3) compared to baseline (Y79 cells [4]): induced significant apoptosis

From US20130035321A1, “COMPOUNDS FOR THE TREATMENT OF OCULAR CANCER” (AnalytiCon Discovery GmbH, priority 2009, published 2013)
